Here are results for twelve molecules from PMC10385824, “Antiproliferative and Tubulin-Destabilising Effects of 3-(Prop-1-en-2-yl)azetidin-2-Ones and Related Compounds in MCF-7 and MDA-MB-231 Breast Cancer Cells” (Pharmaceuticals, 2023).

The nature of data set [1]: HPLC stability study in plasma. The following applies: human, buffered plasma (plasma:buffer 1:9); Plasma; study over 264 h. In kind it is in vitro ADME, human. The protocol: Analytical high-performance liquid chromatography (HPLC) stability studies were performed as follows using Symmetry® column (C18, 5 µm, 4.6 × 150 mm), Waters 2487 Dual Wavelength Absorbance detector, Waters 1525 binary HPLC pump and Waters 717 plus Autosampler (Waters Corporation, Milford, MA, USA) with detection at 254 nm as previously described. Samples were analysed using mobile phase acetonitrile (80%): water (20%), flow rate (1 mL/min) over 10 min. […] First, 30 µL of compound stock solution was diluted with appropriate buffer (1 mL); sample was shaken and injected immediately. Samples were withdrawn and analysed at the following time points: t = 0 min, 5 min, 30 min, 60 min, 90 min, 120 min, 24 h and 48 h. (ii) Thermal stability: Compound stock solution (1 mL) was placed in a glass vial on a heating block for 4 h at 60 °C. The sample was then cooled, diluted (acetonitrile) and analysed. (ii) Oxidising conditions: H2O2 (3%, 0.2 mL) was added to compound stock solution (0.8 mL). The vial was vortexed and retained at 20 °C, and the sample was analysed at 60, 120 180 and 240 min. (iv) Acidic conditions: HCl (0.1 M, 0.2 mL) was added to stock solutions (0.8 mL). The vial was mixed by vortex and retained at 20 °C. A sample was neutralised with NaOH (0.1 M, 0.2 mL) at 60, 120, 180 and 240 min, followed by HPLC analysis. (v) Alkaline conditions: NaOH (0.1 M, 0.2 mL) was added to stock solution (0.8 mL) of the compound in a vial. The vial was mixed by vortex and retained at 20 °C. A sample was neutralised with HCl (0.1 M, 0.2 mL) at 60, 120, 180 and 240 min followed by HPLC analysis. (vi) Photostability study: Compounds (stock solution, 1 mL) were placed in a vial, exposed to UV light for 4 h and then analysed by HPLC as above. Stability studies in plasma: Approval for this study was obtained from the School of Pharmacy and Pharmaceutical Sciences Trinity College Dublin Research Ethics Committee (2020–06-01-MS). Following informed consent, blood was withdrawn from healthy volunteers, and plasma was obtained by centrifugation and kept at −20 °C until further use. […] A sample (250 µL) was then added to the Eppendorf tube containing ZnSO4.7H2O solution (500 µL) (2% w/v ZnSO4 solution in acetonitrile:water, 1:1). The samples were centrifuged (10,000 rpm, 3 min), filtered (0.2 micron filter) and analysed by HPLC as above. Further samples were taken at one-hour intervals.

The nature of data set [2]: HPLC stability study in phosphate buffers. In kind it is physicochemical. The settings on record: for compound remaining: all pH values (4, 7.4, 9), after 11 days; for stability in words: over the pH range studied; for remaining at 264 h, 14.6 µg/mL: phosphate buffer, study over 264 h.
Data set [3] is described as follows: HPLC stability under degradation conditions (acid, alkali, heat, light, oxidation). The settings on record: for remaining at 4 h / remaining at 312 h, 0.5 mg/mL / remaining at 5 h, 0.5 mg/mL: % Remaining; for remaining at 6 h: 30% H2O2 added to stock solution, Hydrogen peroxide (30 % H2O2, 0.2 mL), 20 °C; for remaining at 312 h, 0.5 mg/mL: solution in acetonitrile:water 80:20, daylight, Daylight (acetonitrile (80%):water (20%) 13 days); for remaining at 5 h, 0.5 mg/mL: stock solution in acetonitrile:water 80:20, heated, 80 °C (heating block, 5 h).
Description: Samples were analysed using mobile phase acetonitrile (80%): water (20%), flow rate (1 mL/min) over 10 min. […] First, 30 µL of compound stock solution was diluted with appropriate buffer (1 mL); sample was shaken and injected immediately. […] (ii) Thermal stability: Compound stock solution (1 mL) was placed in a glass vial on a heating block for 4 h at 60 °C. The sample was then cooled, diluted (acetonitrile) and analysed. (ii) Oxidising conditions: H2O2 (3%, 0.2 mL) was added to compound stock solution (0.8 mL).
a All samples were analysed using acetonitrile (80%):water (20%) as the mobile phase over
10 min and a flow rate of 1 mL/min.

The subject of data set [4] is MCF-7 human breast cancer cells. Briefly: cells.
Description: (§1) All biochemical assays were performed in triplicate for the determination of mean values reported. The human breast carcinoma cell line MCF-7 was purchased from the European Collection of Animal Cell Cultures (ECACC) and was cultured in Eagle’s minimum essential medium with 10% fetal bovine serum, 2 mM L-glutamine and 100 μg/mL penicillin/streptomycin. The medium was supplemented with 1% non-essential amino acids. […] All cells were sub-cultured 3 times/week by trypsinisation.
(§2) Cells were seeded at a density of 5 × 10^3 cells/well (MCF-7) in triplicate in 96-well plates. […] Cell proliferation for MCF-7 and MDA-MB-231 cells was analysed using the Alamar Blue assay (Invitrogen Corp.). […] Experiments were performed in triplicate on at least three separate occasions.
Data set [5] shares this test system.
Description: as §1, §2
Data set [6] deals with MDA-MB-231 human breast cancer cells. Briefly: Alamar Blue cell viability (antiproliferative) assay. The data set is classed as cell-based. The settings on record: 72 h, eight concentrations 0.001-50 μM, mean ± SEM, read-out: Antiproliferative Activity IC50. For orientation: Alamar Blue is a resazurin reagent that responds to reducing activity.
The subject of data set [7] is NCI 60 human cancer cell line panel. As to the kind of experiment: NCI 60 cell line screen (SRB), panel values.
The subject of data set [8] is purified bovine brain tubulin. As to the kind of experiment: Tubulin polymerization assay (light scattering, BK006 kit). The data set is classed as biochemical. The settings on record: compound at 10 μM. The protocol:
Tubulin polymerization was monitored using the BK006 kit obtained from Cytoskeleton Inc. (Denver, CO, USA). The values reported represent the average values determined from two independent assays. Purified bovine brain tubulin (>99%, 3 mg/mL) in buffer containing PIPES (80 mM, pH 6.9), EGTA (0.5 mM), MgCl2 (2 mM), GTP (1 mM) and glycerol (10%) was incubated at 37 °C in vehicle (1% DMSO or EtOH (v/v) in dH2O) or with compounds 9h, 9q, 9s, 10h, 10p, 10r, 11h, 11p, 11r, 17f (all at 10 µM concentration); CA-4 (10 μM) was used as control. In this assay, light scattering is related to the concentration of polymerised microtubules produced. Tubulin assembly was monitored turbidimetrically at 340 nm at 37 °C in a Spectramax 340 PC spectrophotometer (Molecular Devices, Sunnyvale, CA, USA).

A further data set relates to MDA-MB-231/ATCC. As to the kind of experiment: NCI-60 SRB screen, breast cancer. In kind it is cell-based, human. The settings on record: Homo sapiens; MDA-MB-231; obtained from NCI; five concentrations 0.01–100 μM; 48 h; read-out: Antiproliferative Activity IC50.
Where [9] appears, read: 1M HCl added to stock solution, 1M HCl (0.1 mL, 20 °C, 4h).
The mark [10] stands for this setting: 1M HCl added to stock solution, 1M HCl (0.2 mL, 50 °C, 4h).
Setting [11] is: 1M NaOH added to stock solution, 1M NaOH (0.1 mL, 20 °C, 4h).
Where [12] appears, read: MCF7, read-out: Antiproliferative Activity IC50, MCF-7, eight concentrations 0.001–50 μM, mean ± SEM, Table 3.
[13] abbreviates: MCF7, 72 h, read-out: Antiproliferative Activity IC50, MCF-7, 72 h, eight concentrations 1–50 μM, mean ± SEM, Table 2.

Like-named read-outs stand apart in the source and are kept apart here.

For orientation: fraction remaining means what is left of the initial amount, in per cent. The low end stands for a greater loss, the high end for greater stability. As usually defined, the melting point is the temperature, or range, at which the solid turns liquid. By GI50 is commonly meant the concentration giving 50% growth inhibition.

As to `C=CCC1C(=O)N(c2cc(OC)c(OC)c(OC)c2)C1c1ccc(OC)c([N+](=O)[O-])c1` (centres unmarked) [10q, 3-Allyl-4-(4-methoxy-3-nitrophenyl)-1-(3,4,5-trimethoxyphenyl)azetidin-2-one], the melting point was 108 to 110 °C. Moreover, the share remaining at 264 h, 41.3 µg/mL in data set [1] came out at 90%. Besides, in data set [2], the compound remaining is reported as 22–26% and the stability in words entry was “poor stability”. The molecule further registered a fraction remaining at 264 h, 14.6 µg/mL in data set [2] (pH 4.0) of 26%. In data set [2] (pH 7.4), this molecule gave an amount remaining at 264 h, 14.6 µg/mL of 25%. Also, in data set [2] (pH 9.0), the amount remaining at 264 h, 14.6 µg/mL is 22%. This molecule also gave a share remaining at 4 h in [3] (setting [9]) of 99.2%. For the same molecule, the amount remaining at 4 h in data set [3] (setting [10]) is 98.7%. Also, the share remaining at 4 h in data set [3] (setting [11]) was 97.8%. In addition, the share remaining at 4 h in data set [3] (1M NaOH added to stock solution, 1M NaOH (0.2 mL, 50 °C, 4h)) amounted to 97.8%. In data set [3], the share remaining at 6 h was determined as 92%; the share remaining at 312 h, 0.5 mg/mL amounted to 100%; the fraction remaining at 5 h, 0.5 mg/mL turned out to be 100%. The IC50 in [4] (setting [12]) amounted to 619 ± 70 nM.
`C=C(C)C1C(=O)N(c2cc(OC)c(OC)c(OC)c2)C1c1ccc(Br)cc1` (centres unmarked) [9c, 4-(4-Bromophenyl)-1-(3,4,5-trimethoxyphenyl)-3-(prop-1-en-2-yl)azetidine-2-one] showed a melting point of 130 to 131 °C. Also, the “antiproliferative activity in words” value in data set [5] (MCF-7) is reported as “sub-micromolar”.
In turn, `C=C(C)C1C(=O)N(c2cc(OC)c(OC)c(OC)c2)C1c1ccc2ccccc2c1` (centres unmarked) [9n, 4-Naphthalen-2-yl-1-(3,4,5-trimethoxyphenyl)-3-(prop-1-en-2-yl)azetidin-2-one] displayed a melting point of 123 to 124 °C. Moreover, in data set [6], the IC50 turned out to be 529 ± 80 nM. Moreover, the IC50 in data set [4] (setting [13]) was determined as 78100 ± 5470 nM. In data set [4] (MCF7, MCF-7), this molecule yielded an IC50 of 139 nM. Besides, the “fold more potent than the 1-naphthyl compound 9m” value in data set [5] (MCF-7 IC50 ratio) came out at 58 fold.
Consider `COC(=O)C1=C(C(=O)OC)C(C2C(=O)N(c3cc(OC)c(OC)c(OC)c3)C2c2cccc3ccccc23)CC=C1` (centres unmarked) [22b, Dimethyl-6-(1-(3,4,5-trimethoxyphenyl)-2-(naphthalen-1-yl)-4-oxoazetidin-3-yl)cyclohexa-1,3-diene-1,2-dicarboxylate], for which the IC50 in data set [5] (read-out: Antiproliferative Activity IC50, MCF-7, 72 h, eight concentrations (0.001–50 mM [sic]), mean ± SEM, Table 5) is 9690 ± 1020 nM.
The molecule `C=C(C)C1C(=O)N(c2cc(OC)c(OC)c(OC)c2)C1c1ccc(C)cc1` (centres unmarked) [9g, 4-p-Tolyl-1-(3,4,5-trimethoxyphenyl)-3-(prop-1-en-2-yl)azetidine-2-one] showed a melting point of 102 to 104 °C. The IC50 in data set [6] worked out at 246 ± 17 nM. In addition, the “antiproliferative activity in words” value in [5] (MCF-7) is reported as “sub-micromolar”.
For `C=C(C)C1C(=O)N(c2cc(OC)c(OC)c(OC)c2)C1c1ccc(Cl)cc1` (centres unmarked) [9b, 4-(4-Chlorophenyl)-1-(3,4,5-trimethoxyphenyl)-3-(prop-1-en-2-yl)azetidine-2-one], the melting point lay within 137 to 138 °C. The IC50 in data set [4] (setting [13]) was 630 ± 70 nM. Further, the “antiproliferative activity in words” value in data set [5] (MCF-7) is “sub-micromolar”.
With `C=C(C)C1C(=O)N(c2ccc(OC)cc2)C1c1cc(OC)c(OC)c(OC)c1` (centres unmarked) [9v, 1-(4-Methoxyphenyl)-3-(prop-1-en-2-yl)-4-(3,4,5-trimethoxyphenyl)azetidin-2-one], the melting point lay within 128 to 130 °C. In addition, the IC50 in [4] (setting [13]) worked out at 1160 ± 120 nM. Moreover, in [5] (MCF-7), the “antiproliferative activity in words” value is “minimal”.
As to `C=C(C)C1C(=O)N(c2cc(OC)c(OC)c(OC)c2)C1c1ccc(N(C)C)cc1` (centres unmarked) [9e, 4-(4-Dimethylaminophenyl)-1-(3,4,5-trimethoxyphenyl)-3-(prop-1-en-2-yl)azetidine-2-one], the IC50 in [4] (setting [13]) turned out to be 5950 ± 920 nM. The “antiproliferative activity in words” value in data set [5] (MCF-7) is reported as “sub-micromolar”.
Consider `C=C(C)C1C(=O)N(c2ccc(SC)cc2)C1c1cc(OC)c(OC)c(OC)c1` (centres unmarked) [9t, 1-(4-(Methylthio)phenyl)-3-(prop-1-en-2-yl)-4-(3,4,5-trimethoxyphenyl)azetidin-2-one], for which the melting point is 113 to 115 °C. Moreover, the IC50 in [4] (setting [13]) was determined as 131 ± 40 nM. In data set [5] (MCF-7), the “antiproliferative activity in words” value is “minimal”.
In data set [1], `C=CCC1C(=O)N(c2cc(OC)c(OC)c(OC)c2)C1c1ccc(OC)cc1` (centres unmarked) [10h, 3-Allyl-4-(4-methoxyphenyl)-1-(3,4,5-trimethoxyphenyl)azetidin-2-one] came in with an amount remaining at 264 h, 41.3 µg/mL of 100%. The GI50 in [7] (Homo sapiens, 60 cell, read-out: Mean GI50, mean over all NCI 60 cell lines) was < 91.2 nM; in data set [7] (read-out: Mean GI50, mean over all NCI 60 cell lines) it was 75.9 nM. In addition, in data set [7] (Homo sapiens, 60 cell, read-out: Mean LC50), the CC50 was 81300 nM. Further, in data set [7] (Homo sapiens, 60 cell, read-out: Mean TGI), the IC (TGI (total growth inhibition)) stood at 17400 nM. The compound remaining in data set [2] is reported as 24–41%. In addition, the stability in words result in [2] is “poor stability”. In addition, the fraction remaining at 264 h, 14.6 µg/mL came out at 28% in data set [2] (pH 4.0), 41% in data set [2] (pH 7.4) and 24% in [2] (pH 9.0). In addition, the Vmax in data set [8] (37 °C, 340 nm) is reported as 0.0056 mOD/min. In addition, the “Fold Reduction in Vmax” value in [8] (relative to vehicle) worked out at 2.5. Further, the figures for the amount remaining at 4 h in [3] (setting [9]), in data set [3] (setting [10]) and in data set [3] (setting [11]) were 97.5%, 99.6% and 96%, respectively. In data set [3], the amount remaining at 6 h was 100%. The molecule also returned a fraction remaining at 312 h, 0.5 mg/mL in data set [3] of 100%. In data set [3], this molecule had a fraction remaining at 5 h, 0.5 mg/mL of 100%. For the same molecule, the IC50 is 35 ± 5 nM in data set [4] (setting [12]) and 120 nM with MDA-MB-231/ATCC.
For `C=C(C)C1C(=O)N(c2ccc(OCC)cc2)C1c1cc(OC)c(OC)c(OC)c1` (centres unmarked) [9u, 1-(4-Ethoxyphenyl)-3-(prop-1-en-2-yl)-4-(3,4,5-trimethoxyphenyl)azetidin-2-one], the melting point was in the range of 106 to 108 °C. Further, in data set [5] (MCF-7), the “antiproliferative activity in words” value was “minimal”.
The molecule `C=C(C)C1C(=O)N(c2cc(OC)c(OC)c(OC)c2)C1c1ccc(SC)cc1` (centres unmarked) [9o, 4-(4-(Methylthio)phenyl)-3-(prop-1-en-2-yl)-1-(3,4,5-trimethoxyphenyl)azetidin-2-one] returned a melting point of 99 to 100 °C. For the same molecule, the IC50 in data set [4] (setting [13]) came out at 272000 ± 26400 nM. Also, in data set [5] (MCF-7), the “antiproliferative activity in words” value is “sub-micromolar”.
